A short description of data set [1]: Water solubility (stated property). Format: physicochemical.
Data set [2] in a line: Pharmacokinetics of WN-compounds in mice (brain and serum concentration, HPLC). Format: in vivo, mouse (C57BL/6N). As to the method: Wild type mice at 8 weeks (male, C57BL/6N) were used for the analysis of CPN-9, WN1303R, WN1312, WN1315 and WN1316 pharmacokinetics. CPN-9 was suspended in 0.5% carboxymethyl cellulose (CMC)-Na (carmellose sodium, Maruishi Pharmaceutical Co., Ltd.), while WN1303R, WN1312 and WN1316 were dissolved in Milli-Q purified water (MQ water) and WN1315 was dissolved in 0.25 N HCl. CPN-9 (100 mg/kg body weight) and the four WN-compounds (50 mg/kg body weight) were injected intragastrically (i.g.). After 15 min, 30 min, 1 h, 2 h, 4 h, 6 h, and 8 h, blood was collected from heart of each mouse anesthetized with 2% isoflurane by inhalation or 4% halothane in a mixture of N2O/O2 (70∶30). Mice were thereafter perfused transcardially with physiological saline containing 10% heparin under anesthesia, and the whole brain was removed. Each blood sample was centrifuged at 1,000×g for 10 min at 4°C, and the serum fraction was collected. The brain was frozen in liquid nitrogen, and was cryopreserved until use.
We mixed serum with deproteinization buffer (0.05 M H2SO4, 2.5 M K2CO3, and […]), and collected the organic layer after centrifugation at 1,500×g for 10 min. The organic layer was mixed with 0.05 M H2SO4, and then, after centrifugation at 1,500×g for 10 min, the water layer was collected. After the addition of methanol, each serum derived sample was subjected to HPLC.
Mouse whole brain was homogenized with acetonitrile and left at −80°C for 10 min. The supernatant was collected after centrifugation at 10,000×g for 10 min at 4°C and was dried under vacuum. The dried sample was re-dissolved in methanol and mixed with two volumes of 10 mM phosphate buffer (pH7.0), after which the supernatant was collected by centrifugation at 10,000×g for 10 min at 4°C and then left at −80°C for 10 min. To further remove debris, the supernatant was filtered (0.45 µm filter), centrifuged (at 10,000×g for 10 min at 4°C), filtered (0.22 µm filter) and finally centrifuged again. Each sample solution from brain was subjected to HPLC.
The concentrations of CPN-9 and WN1316 in the serum and brain samples were determined by HPLC on a CAPCELL PAK C18 column (SHISEIDO) with 50% acetonitrile (CPN-9), 40% acetonitrile (WN1316) or 45% acetonitrile (WN1303R, WN1312, and WN1315) in 10 mM phosphate buffer (pH 7.0).

Details of data set [3]: method as in PMID 23000247. The settings on record: cited from earlier work.
Where [4] appears, read: C57BL/6N mice, intragastric, 100 mg/kg in 0.5% CMC-Na, n = 3, mean ± SD.

As for `Cc1cc(C)c(OCC(=O)Nc2nc(-c3ccccn3)cs2)c(C)c1` [CPN-9, N-(4-(2-pyridyl)(1,3-thiazol-2-yl))-2-(2,4,6-trimethylphenoxy) acetamide, reference compound], the “water solubility (in words)” value in data set [1] is on record as “hardly water soluble”. Further, in data set [2] (setting [4]), the “AUC0–8: Brain” value is 1.0±1.3 µg⋅h/g and the “AUC0–8: Serum” value is listed as 5.9±0.8 µg⋅h/ml. Also, the “BBB permeability (in words)” value in data set [2] (mouse, in vivo) was “very poor blood-brain-barrier (BBB) permeability”. Also, the “toxicity (in words)” value in data set [3] was “considerable toxicity”.

These data come from article PMC3909264, “A Novel Acylaminoimidazole Derivative, WN1316, Alleviates Disease Progression via Suppression of Glial Inflammation in ALS Mouse Model” (PLoS ONE, 2014).
